Data taken from publication PMC5500990 (European Journal of Medicinal Chemistry, 2017).
Entries after “also recorded” stand apart in the source; their conditions may differ. *1 amine or outer side, *2 acyl side, *3 side chain or, on linkers, in order; H or OH if unused. Where a SMILES comes first, the peptide text is derived from it. [ ]: non-standard residue; d: D form. X1 = C=CC(C)(C)n1cc(C[C@@H](N[*:1])C(=O)[*:2])c2ccccc21; X3 = CCCCCn1cc(C[C@@H](N[*:1])C(=O)[*:2])c2ccccc21; X4 = CCCn1cc(C[C@@H](N[*:1])C(=O)[*:2])c2ccccc21; dTrp(1-Bu) = CCCCn1cc(C[C@@H](N)C(=O)O)c2ccccc21; X2 = CCn1cc(C[C@@H](N[*:1])C(=O)[*:2])c2ccccc21; dTrp(1-Me) = Cn1cc(C[C@@H](N)C(=O)O)c2ccccc21; dNMeF = CN[C@H](Cc1ccccc1)C(=O)O

Legend:
DMS79 cells = assay: Cell viability assay using resazurin dye, DMS79 cells; type: cell-based, human; settings: for IC50: 48 h
Experimental: (§1) Cell viability was evaluated by treating H69 and DMS79 cells with peptides 13–20 in the 0.1–30 μM range for 48 h, with subsequent use of the resazurin dye cell viability assay. IC50 values (Table 1) for all the peptides were derived from the dose response curves (Fig. S24). Table 1 also presents the IC50 values obtained for 1 and 2 previously. RPMI-1640 (with L-glutamine and NaHCO3) was obtained from Sigma-Aldrich. Heat Inactivated Fetal Bovine Serum (FBS) was obtained from Life Technologies. H69 and DMS79 SCLC cell lines were obtained from as previously stated. Cells were grown in 10% v/v FBS/RPMI-1640 (complete medium) and incubated at 37 °C in humidified air atmosphere of 5% CO2. Both, H69 and DMS79 cells are suspension cells and grow in aggregates. For the experimental part, cells were re-suspended in fresh complete medium. Dulbecco's PBS (without calcium chloride and magnesium chloride) and Resazurin sodium salt were obtained from Sigma-Aldrich. The peptide concentrations were calculated accurately using UV/VIS Spectrometer Perkin Elmer instrument and dilution of the stock concentration was made using 50% v/v FBS/sterile saline. Concentrations prepared were ranged from 0.6 to 0.002 mM. Cells were seeded in 96-well plates at a seeding density of 1 × 10^4 cells/190 μl/well in triplicates. Peptides were then added on the same day and incubated as the above conditions stated in Section 5.1. The amount of peptide solution added into each well was 10 μl, resulting in a final well concentration of 30 to 0.1 μM. Untreated control samples were also prepared. Samples for background fluorescence for the resazurin dye were also prepared using only complete medium. After 48 h incubation, resazurin dye (20 μl; 0.125 mg/ml in PBS) was added to each well and incubated as the above conditions stated in Section 5.1 for 5 h. Then, fluorescence readings were recorded using a Tecan Safire plate reader and % viability calculated. Assays were repeated three independent times. Graphs were generated using GraphPad Prism 7.00 software.

H69 cells = assay: Cell viability assay using resazurin dye, H69 cells; type: cell-based, human; settings: for IC50: 48 h
Experimental: as §1

neat mouse plasma = settings: 37 °C, up to 48 h
[1] = Stability in neat mouse plasma (RP-HPLC); type: in vitro ADME
Source text: When optimising for functional activity there is also a need to assess whether the desired modification will negatively affect the stability of the peptide. Characterisation of the metabolism of peptides is useful to improve their stability in vivo. The finding that a carboxylic acid group, instead of the usual amide, at the C-terminus inactivates the cytotoxicity of 16 (results of 20 - Table 1) may compromise its use in vivo as protein de-amidation reactions are widespread in plasma. Peptides 16 and 19, being the most cytotoxic peptides, were exposed to the conditions of in vitro metabolism in plasma. Peptide 20 lacking the amide group was used as a control. Peptides 16, 19 and 20 were incubated in neat mouse plasma at 37 °C for 48 h. Peptide 2, previously tested over a shorter incubation time, was included for benchmarking purpose.
Peptides were added to neat mouse plasma at a concentration of 400 μg/ml and incubated as the above conditions stated in Section 5.1. Aliquots (20 μl) were taken at 0, 3, 24 and 48 h. To the 20 μl sample, 80 μl of solution B was added and left for 5 min, prior to 1 min sonication to precipitate plasma proteins. The sample was then centrifuged for 5 min at full speed. Then 80 μl of the supernatant was added to 120 μl of solution A and transferred into a HPLC microvial to be analysed using the C8 column. A linear gradient elution was made starting with 100% of solution A and ending after 30 mins with 100% of solution B, with a flow rate of 1 ml/min and followed at λmax 220 nm. The injection volume was 36 μl. Assays were repeated three independent times. HPLC microvials at 0 and 48 h were characterised by ESIMS using the instrument stated in Section 4.1.

Molecule	IC50 (DMS79 cells) [nM]	IC50 (H69 cells) [nM]	further results
CCCn1cc(C[C@@H](NC(=O)[C@H](Cc2ccccc2)NC(=O)[C@@H](Cc2c[nH]c3ccccc23)NC(=O)[C@@H](Cc2ccccc2)NC)C(=O)N[C@@H](CC(C)C)C(N)=O)c2ccccc21 [Peptide 15] (H-[dNMeF][dW]F[X4]L-NH2)	1910 ± 30	1570 ± 100	–
DMePhe-DTrp-Phe-DTrp(N-tert-prenyl)-Leu-NH2 (H-[dNMeF][dW]F[X1]L-NH2; SMILES C=CC(C)(C)n1cc(C[C@@H](NC(=O)[C@H](Cc2ccccc2)NC(=O)[C@@H](Cc2c[nH]c3ccccc23)NC(=O)[C@@H](Cc2ccccc2)NC)C(=O)N[C@@H](CC(C)C)C(N)=O)c2ccccc21)	–	–	cleaved bond (neat mouse plasma): Leu-NH2, 3 hrs
CCCCn1cc(C[C@@H](NC(=O)[C@@H](Cc2ccccc2)NC)C(=O)N[C@@H](Cc2ccccc2)C(=O)N[C@H](Cc2c[nH]c3ccccc23)C(=O)N[C@@H](CC(C)C)C(N)=O)c2ccccc21 [Peptide 18] (H-[dNMeF][dTrp(1-Bu)]F[dW]L-NH2)	3880 ± 150	4050 ± 170	fold reduction in potency/cytotoxicity compared to 16 (DMS79 cells; DMS79 cell line): 3–4 fold
CN[C@H](Cc1ccccc1)C(=O)N[C@H](Cc1c[nH]c2ccccc12)C(=O)N[C@@H](Cc1ccccc1)C(=O)N[C@H](Cc1cn(C)c2ccccc12)C(=O)N[C@@H](CC(C)C)C(N)=O [Peptide 13] (H-[dNMeF][dW]F[dTrp(1-Me)]L-NH2)	4030 ± 310	3980 ± 220	times less active than 2 (H69 cells; H69): ~1.4 times
CCn1cc(C[C@@H](NC(=O)[C@H](Cc2ccccc2)NC(=O)[C@@H](Cc2c[nH]c3ccccc23)NC(=O)[C@@H](Cc2ccccc2)NC)C(=O)N[C@@H](CC(C)C)C(N)=O)c2ccccc21 [Peptide 14] (H-[dNMeF][dW]F[X2]L-NH2)	1920 ± 30	1830 ± 30	–
CCCCCn1cc(C[C@@H](NC(=O)[C@H](Cc2ccccc2)NC(=O)[C@@H](Cc2c[nH]c3ccccc23)NC(=O)[C@@H](Cc2ccccc2)NC)C(=O)N[C@@H](CC(C)C)C(N)=O)c2ccccc21 [Peptide 17] (H-[dNMeF][dW]F[X3]L-NH2)	2370 ± 60	1800 ± 100	–
CCCCn1cc(C[C@@H](NC(=O)[C@H](Cc2ccccc2)NC(=O)[C@@H](Cc2c[nH]c3ccccc23)NC(=O)[C@@H](Cc2ccccc2)NC)C(=O)N[C@@H](CC(C)C)C(=O)O)c2ccccc21 [Peptide 20] (H-[dNMeF][dW]F[dTrp(1-Bu)]L-OH)	> 30000	> 30000	% (± SE) of parent peptide to degradation product(s) in plasma studies ([1]; 37 °C, 0 hr, n = 3): 100%; % (± SE) of parent peptide to degradation product(s) in plasma studies ([1]; 37 °C, 3 hrs, n = 3): 100%; % (± SE) of parent peptide to degradation product(s) in plasma studies ([1]; 37 °C, 24 hrs, n = 3): 100%; % (± SE) of parent peptide to degradation product(s) in plasma studies ([1]; 37 °C, 48 hrs, n = 3): 100%; degradation in plasma (in words) ([1]; 37 °C, up to 48 h, RP-HPLC and MS): no sign of degradation; also recorded: complete stability in plasma
C=CC(C)(C)n1cc(C[C@@H](NC(=O)[C@H](Cc2ccccc2)NC(=O)[C@@H](Cc2c[nH]c3ccccc23)NC(=O)[C@@H](Cc2ccccc2)NC)C(=O)N[C@@H](CC(C)C)C(N)=O)c2ccccc21 [Peptide 2, DMePhe-DTrp-Phe-DTrp(N-tert-prenyl)-Leu-NH2] (H-[dNMeF][dW]F[X1]L-NH2)	–	–	% (± SE) of parent peptide to degradation product(s) in plasma studies ([1]; 37 °C, 0 hr, n = 3): 100%; % (± SE) of parent peptide to degradation product(s) in plasma studies ([1]; 37 °C, 24 hrs, n = 3, listed as tert-Prenyl^4th-NH2): ~58%; metabolised at 24 h, 400 μg/ml ([1]; after 24 h exposure, read-out: degraded in plasma): ~42%
